From the Kinase Knowledgebase extract (Sharma et al. 2016)

biological target: PIK3CA (human) (UniProt P42336); test: Assessment of PIK3CA Kinase Activity
Sequence (P42336 whole entry, looked up): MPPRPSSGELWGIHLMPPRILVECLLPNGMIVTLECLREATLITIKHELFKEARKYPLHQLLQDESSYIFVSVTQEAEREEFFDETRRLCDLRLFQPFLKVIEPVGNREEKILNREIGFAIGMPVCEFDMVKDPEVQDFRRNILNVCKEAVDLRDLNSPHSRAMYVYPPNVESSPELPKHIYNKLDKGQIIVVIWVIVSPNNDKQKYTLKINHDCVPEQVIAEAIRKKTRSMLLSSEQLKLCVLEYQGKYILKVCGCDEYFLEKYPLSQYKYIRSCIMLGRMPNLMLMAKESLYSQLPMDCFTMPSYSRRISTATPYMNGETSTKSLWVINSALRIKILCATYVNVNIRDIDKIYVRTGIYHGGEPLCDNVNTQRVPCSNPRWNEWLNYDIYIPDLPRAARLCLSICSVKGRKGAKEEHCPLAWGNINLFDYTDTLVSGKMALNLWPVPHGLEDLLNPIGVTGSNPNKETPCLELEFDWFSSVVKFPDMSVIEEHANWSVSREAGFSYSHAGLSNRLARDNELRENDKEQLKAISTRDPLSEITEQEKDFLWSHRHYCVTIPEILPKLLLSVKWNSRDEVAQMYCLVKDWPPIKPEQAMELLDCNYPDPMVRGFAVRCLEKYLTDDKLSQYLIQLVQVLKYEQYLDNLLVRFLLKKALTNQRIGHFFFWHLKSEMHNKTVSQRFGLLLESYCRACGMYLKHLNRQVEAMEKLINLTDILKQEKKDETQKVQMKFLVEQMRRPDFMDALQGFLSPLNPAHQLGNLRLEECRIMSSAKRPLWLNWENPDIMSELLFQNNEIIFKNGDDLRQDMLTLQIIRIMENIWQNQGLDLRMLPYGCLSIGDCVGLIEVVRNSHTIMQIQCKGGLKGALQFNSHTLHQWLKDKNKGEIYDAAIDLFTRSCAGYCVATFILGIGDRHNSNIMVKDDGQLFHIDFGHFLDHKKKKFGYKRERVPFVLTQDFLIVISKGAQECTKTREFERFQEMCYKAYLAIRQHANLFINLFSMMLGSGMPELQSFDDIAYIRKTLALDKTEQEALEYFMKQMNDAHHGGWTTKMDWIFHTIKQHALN

Compound	IC50
CCOc1ncccc1-c1ccc2c(c1)-c1nc(-c3ncnn3C(C)C)sc1CCO2	< 1000 nM
CC1(C)CCCN(C(=O)c2nc3c(s2)CCOc2cc(-c4cn[nH]c4)ccc2-3)C1	< 1000 nM
CS(=O)(=O)c1cccc(-c2ccc3c(c2)OCCc2sc(-c4ncnn4CC(F)(F)F)nc2-3)c1	< 1000 nM
CC(C)n1ncnc1-c1nc2c(s1)CCOc1ccc(-c3cccnc3F)cc1-2	< 1000 nM
CC(C)n1ncnc1-c1nc2c(s1)CCOc1cc(C3CCN(CC(=O)NC(C)(C)C)CC3)ccc1-2	< 1000 nM
CC(C)n1c(-c2nc3c(s2)CCOc2cc(-c4cnn(CCO)c4)ccc2-3)nnc1C(F)(F)F	< 1000 nM
CN(C)C(=O)N1CCN(C(=O)c2nc3c(s2)CCOc2cc(-c4cn[nH]c4)ccc2-3)CC1	< 1000 nM
CC(C)(CO)n1cc(-c2ccc3c(c2)OCCc2sc(-c4ncnn4CC(F)(F)F)nc2-3)cn1	< 1000 nM
COc1ccncc1-c1ccc2c(c1)-c1nc(-c3ncnn3C(C)C)sc1CCO2	< 1000 nM
FC(F)(F)Cn1ncnc1-c1nc2c(s1)CCOc1cc(-c3cnn(CCN4CCOCC4)c3)ccc1-2	< 1000 nM
Cc1ncccc1-c1ccc2c(n1)-c1sc(-c3nccn3C(C)C)cc1CCO2	< 1000 nM
O=C(O)Cn1cc(-c2ccc3c(c2)OCCc2sc(-c4ncnn4CC(F)(F)F)nc2-3)cn1	< 1000 nM
Cc1nc(-c2nc3c(s2)CCOc2cc(C4CN(CCCO)C4)ccc2-3)n(C(C)C)n1	< 1000 nM
CN(C)CCN(C(=O)c1nc2c(s1)CCOc1cc(-c3cnn(CC(C)(C)O)c3)ccc1-2)C1CCCCC1	< 1000 nM
CC(C)Nc1ccc2c(n1)-c1sc(-c3ncnn3-c3ccc(F)cc3F)cc1CCO2	< 1000 nM
CC(CO)Nc1ccc2c(n1)-c1sc(-c3ncnn3-c3ccc(F)cc3F)cc1CCO2 (configuration not stated)	< 1000 nM
CC(C)n1ncnc1-c1nc2c(s1)CCOc1cc(O[C@H](C)C(N)=O)ccc1-2	< 1000 nM
CN1CCC(N(C)C(=O)c2nc3c(s2)CCOc2cc(-c4cn[nH]c4)ccc2-3)C1 (configuration not stated)	< 1000 nM
CC(C)n1ncnc1-c1nc2c(s1)CCOc1cc(C3CN(CC(N)=O)C3)ccc1-2	< 1000 nM
CC(C)(C)C1CCN(C(=O)c2nc3c(s2)CCOc2cc(-c4cn[nH]c4)ccc2-3)CC1	< 1000 nM
CC(C)n1ncnc1-c1nc2c(s1)CCOc1ccc(-c3cncc(S(C)(=O)=O)c3)cc1-2	< 1000 nM
CC1CN(C(=O)c2nc3c(s2)CCOc2cc(-c4cn[nH]c4)ccc2-3)CCN1 (configuration not stated)	< 1000 nM
CC(C)n1nc(N)nc1-c1nc2c(s1)CCOc1ccc(F)cc1-2	< 1000 nM

Compound	IC50
CC(C)N1CC(c2ccc3c(c2)OCCc2sc(-c4ncnn4C(C)C)nc2-3)C1	< 1000 nM
CC(C)(C(=O)O)n1cc(-c2ccc3c(c2)OCCc2sc(-c4ncnn4CC(F)(F)F)nc2-3)cn1	< 1000 nM
Cc1ncccc1-c1ccc2c(c1)-c1nc(-c3ncnn3C(C)C)sc1CCO2	< 1000 nM
CC(C)N(CCO)C(=O)c1nc2c(s1)CCOc1ccc(-c3cnn(CC(C)(C)O)c3)cc1-2	< 1000 nM
CC(C)n1ncnc1-c1nc2c(s1)CCOc1ccc(C3CCN(C(=O)[C@@H](C)O)CC3)cc1-2	< 1000 nM
Cc1nn(C)c(=O)n1-c1nc2c(s1)CCOc1cc(-c3cnn(CC(C)(C)O)c3)ccc1-2	< 1000 nM
CC(C)N(CCO)C(=O)c1nc2c(s1)CCOc1cc(-c3cnc(N4CCN(C)CC4)nc3)ccc1-2	< 1000 nM
Cc1ccncc1-c1ccc2c(c1)-c1nc(C(=O)N(CCO)C(C)C)sc1CCO2	< 1000 nM
CC(C)N1CCN(c2ccc3c(n2)-c2sc(-c4ncnn4-c4ccc(F)cc4F)cc2CCO3)CC1	< 1000 nM
CN1CCC(CNc2ccc3c(n2)-c2sc(-c4ncnn4-c4ccc(F)cc4F)cc2CCO3)C1 (configuration not stated)	< 1000 nM
O=C(O)CNc1ccc2c(n1)-c1sc(-c3ncnn3-c3ccc(F)cc3F)cc1CCO2	< 1000 nM
CC(C)Oc1cc(-c2ccc3c(c2)-c2nc(-c4ncnn4C(C)C)sc2CCO3)ccn1	< 1000 nM
CC(C)n1ncnc1-c1nc2c(s1)CCOc1cc(C3CCN(CCS(=O)(=O)N(C)C)CC3)ccc1-2	< 1000 nM
COCCOc1ncccc1-c1ccc2c(c1)-c1nc(-c3ncnn3C(C)C)sc1CCO2	< 1000 nM
OCCn1cc(-c2ccc3c(c2)OCCc2sc(-c4ncnn4CCN4CCOCC4)nc2-3)cn1	< 1000 nM
O=C(c1nc2c(s1)CCOc1cc(-c3cn[nH]c3)ccc1-2)N(CCO)C1CCCC1	< 1000 nM
CC(C)N(CCCO)C(=O)c1nc2c(s1)CCOc1cc(-c3cn[nH]c3)ccc1-2	< 1000 nM
CNC(=O)c1ccc2c(c1)OCCc1cc(C(=O)N(C)c3cc(C(=O)N4CCNCC4)ccc3Cl)sc1-2	< 1000 nM
CC(C)n1ncnc1-c1nc2c(s1)CCOc1ccc(-c3cccn(CC(N)=O)c3=O)cc1-2	< 1000 nM
CC(=O)N1CC(N(C(C)=O)c2ccc3c(n2)-c2sc(-c4ncnn4-c4ccc(F)cc4F)cc2CCO3)C1	< 1000 nM
FC(F)(F)Cn1ncnc1-c1nc2c(s1)CCOc1cc(-c3ccc(NCCN4CCOCC4)nc3)ccc1-2	< 1000 nM
Cc1nc(-c2nc3c(s2)CCOc2cc(C4CN(CCS(C)(=O)=O)C4)ccc2-3)n(C(C)C)n1	< 1000 nM
OCC(O)CNc1ccc2c(n1)-c1sc(-c3ncnn3-c3ccc(F)cc3F)cc1CCO2 (configuration not stated)	< 1000 nM

Compound	IC50
CC(C)(CN)n1cc(-c2ccc3c(c2)OCCc2sc(-c4ncnn4CC(F)(F)F)nc2-3)cn1	< 1000 nM
Cc1ccc(-c2ccc3c(c2)-c2nc(-c4ncnn4C(C)C)sc2CCO3)cn1	< 1000 nM
CC(C)N(CCO)C(=O)c1nc2c(s1)CCOc1ccc(-c3cnc(N)nc3)cc1-2	< 1000 nM
CC(C)n1ncnc1-c1nc2c(s1)CCOc1ccc(-c3cccn(CC(=O)N(C)C)c3=O)cc1-2	< 1000 nM
COc1ccccc1-c1ccc2c(c1)-c1nc(-c3ncnn3C(C)C)sc1CCO2	< 1000 nM
CC(=O)N1CC(n2c(Cl)cnc2-c2nc3c(s2)CCOc2cc(-c4cnn(CC(C)(C)O)c4)ccc2-3)C1	< 1000 nM
COCCN1CCC(c2ccc3c(c2)OCCc2sc(-c4ncnn4C(C)C)nc2-3)CC1	< 1000 nM
CN(C(=O)c1cc2c(s1)-c1ccc(C(=O)NCCS(C)(=O)=O)cc1OCC2)c1cc(C(=O)N2CC(O)C2)ccc1Cl	< 1000 nM
CC(O)C(=O)N1CC(n2ccnc2-c2nc3c(s2)CCOc2cc(-c4cnn(CC(C)(C)O)c4)ccc2-3)C1 (configuration not stated)	< 1000 nM
CC(C)n1ncnc1-c1nc2c(s1)CCOc1ccc(C3CCCC3)cc1-2	< 1000 nM
Fc1ccc(-n2ncnc2-c2nc3c(s2)CCOc2cc(-c4cn[nH]c4)ccc2-3)c(F)c1	< 1000 nM
O=C(c1nc2c(s1)CCOc1cc(-c3cn[nH]c3)ccc1-2)N1CCC(F)(F)CC1	< 1000 nM
CC(C)n1ccnc1-c1nc2c(s1)CCOc1cc(-c3cnn(CCO)c3)ccc1-2	< 1000 nM
COCC(O)Cn1cc(-c2ccc3c(c2)OCCc2sc(-c4nc(C)nn4C(C)C)nc2-3)cn1 (configuration not stated)	< 1000 nM
COCCN1CC(c2ccc3c(c2)OCCc2sc(-c4nc(C)nn4C(C)C)nc2-3)C1	< 1000 nM
O=C(c1nc2c(s1)CCOc1cc(-c3cn[nH]c3)ccc1-2)N1CC(F)(F)C1	< 1000 nM
Cc1cc(-c2ccc3c(n2)-c2sc(-c4ncnn4-c4ccc(F)cc4F)cc2CCO3)cnc1N1CCN(C)CC1	< 1000 nM
COCCNCc1ccc2c(c1)OCCc1sc(-c3nncn3C(C)C)nc1-2	< 1000 nM
Fc1ccc(-n2ncnc2-c2cc3c(s2)-c2nc(NCCN4CCCC4)ccc2OCC3)c(F)c1	< 1000 nM
COCCN1CCN(C(=O)c2nc3c(s2)CCOc2cc(-c4cn[nH]c4)ccc2-3)CC1	< 1000 nM
CN(C(=O)c1nc2c(s1)CCOc1cc(-c3cn[nH]c3)ccc1-2)C1CCS(=O)(=O)C1 (configuration not stated)	< 1000 nM
CC(C)n1ncnc1-c1nc2c(s1)CCOc1cc(-c3cc[nH]c(=O)c3)ccc1-2	< 1000 nM
CC(C)(O)Cn1cc(-c2ccc3c(c2)OCCc2sc(-c4nc(N)nn4-c4ccc(F)cc4F)nc2-3)cn1	< 1000 nM

Compound	IC50
CC(C)N(CCO)C(=O)c1nc2c(s1)CCOc1cc(-c3cnn(CC(C)(C)O)c3)ccc1-2	< 1000 nM
CC(C)n1ncnc1-c1nc2c(s1)CCOc1ccc(-c3ccc[nH]c3=O)cc1-2	< 1000 nM
CC(=O)N1[C@H](C)CN(c2ccc3c(n2)-c2sc(-c4ncnn4-c4ccc(F)cc4F)cc2CCO3)C[C@@H]1C	< 1000 nM
C[C@@H]1CN(c2ccc3c(n2)-c2sc(-c4ncnn4-c4ccc(F)cc4F)cc2CCO3)C[C@H](C)N1CC(F)F	< 1000 nM
CC(C)(O)Cn1cc(-c2ccc3c(c2)OCCc2sc(N4C(=O)OCC4(C)C)nc2-3)cn1	< 1000 nM
CN1CCN(C(=O)c2nc3c(s2)CCOc2cc(-c4cn[nH]c4)ccc2-3)CC1	< 1000 nM
CC(C)n1ncnc1-c1nc2c(s1)CCOc1ccc(-c3ccc(F)nc3)cc1-2	< 1000 nM
CC(=O)N1CCCN(c2ccc3c(n2)-c2sc(-c4ncnn4-c4ccc(F)cc4F)cc2CCO3)CC1	< 1000 nM
O=C(c1nc2c(s1)CCOc1cc(-c3cn[nH]c3)ccc1-2)N(CCO)C1CCCCC1	< 1000 nM
CC(C)n1cnnc1-c1nc2c(s1)CCOc1cc(CNCC(N)=O)ccc1-2	< 1000 nM
NC(=O)CNc1ccc2c(n1)-c1sc(-c3ncnn3-c3ccc(F)cc3F)cc1CCO2	< 1000 nM
CC(=O)N1CC(n2ccnc2-c2nc3c(s2)CCOc2cc(-c4cnn(CC(C)(C)O)c4)ccc2-3)C1	< 1000 nM
CC(C)N(CCO)C(=O)c1nc2c(s1)CCOc1cc(-c3cnn(CCN4CCOCC4)c3)ccc1-2	< 1000 nM
Cc1nc(-c2nc3c(s2)CCOc2cc(C4COC4)ccc2-3)n(C(C)C)n1	< 1000 nM
CC(C)n1ncnc1-c1nc2c(s1)CCOc1ccc(-c3ccn(C)c(=O)c3)cc1-2	< 1000 nM
O=C(c1nc2c(s1)CCOc1cc(-c3cn[nH]c3)ccc1-2)N1CCCN(c2ccncc2)CC1	< 1000 nM
Cc1nc(-c2nc3c(s2)CCOc2cc([C@@H]4CCCNC4)ccc2-3)n(C(C)C)n1	< 1000 nM
O=C(c1nc2c(s1)CCOc1cc(-c3cn[nH]c3)ccc1-2)N1CCN(C(=O)C(F)(F)F)CC1	< 1000 nM
CC(C)n1ncnc1-c1nc2c(s1)CCOc1ccc(C3CN(C(=O)[C@H](C)O)C3)cc1-2	< 1000 nM
O=C(c1nc2c(s1)CCOc1cc(-c3cn[nH]c3)ccc1-2)N1CCC[C@@H](C(F)(F)F)C1	< 1000 nM
CC(=O)Nc1ccc(-c2ccc3c(n2)-c2sc(-c4ncnn4-c4ccc(F)cc4F)cc2CCO3)cn1	< 1000 nM
CC1(C)C(=O)NC(=O)N1c1nc2c(s1)CCOc1ccccc1-2	< 1000 nM
CC(C)n1ncnc1-c1nc2c(s1)CCOc1ccc(C3CN(C(=O)[C@@H](C)O)C3)cc1-2	< 1000 nM
